# Measurements as given in publication PMC8776094, “Reactive Oxygen Species Production Is Responsible for Antineoplastic Activity of Osmium, Ruthenium, Iridium and Rhodium Half-Sandwich Type Complexes with Bidentate Glycosyl Heterocyclic Ligands in Various Cancer Cell Models” (International Journal of Molecular Sciences, 2022).
# Assay: Determination of the distribution coefficients (logD), n-octanol/PBS
# Assay type: physicochemical
# Conditions: n-octanol / PBS pH = 7.40, rt
# Description: Before starting the experiments, n-octanol was saturated with an aqueous PBS solution (pH = 7.40) and vice versa. A solution of the appropriate complex (approximately 0.2–0.3 mg) in a mixture of 2.50 mL pre-saturated n-octanol and 2.50 mL pre-saturated PBS buffer was made, and the resulting mixture was then vigorously stirred for 3 days at rt. Based on our previous NMR stability experiments, this time is long enough to reach equilibrium among the various ionic complex species. Due to the lipophilic/hydrophilic features of the complexes, those with benzoyl protection could primarily be found in the n-octanol, while the complexes with O-peracetylated and O-deprotected ligands were in the aqueous PBS phase. The corresponding separated solution was centrifuged (ScanSpeed 406G instrument, 4000 RPM for 5 min) and the absorption of the ”stock solution” was determined (VWR UV-1600PC Spectrophotometer, 270–420 nm). Then, 2.00 mL of the stock solution was vigorously stirred with 16.00 mL of pre-saturated n-octanol or PBS solution. After one day had passed, the phases were separated, centrifuged, and the absorption of the solution was measured again. From the absorption difference of the stock solutions, the distribution coefficient (D) was determined using previously described formulae [71].
row,SMILES,LogD
1,Cc1c(C)c(C)[c-](C)c1C.F[P-](F)(F)(F)(F)F.O=C(OCC1OC(n2cc(-c3ccccn3)nn2)C(OC(=O)c2ccccc2)C(OC(=O)c2ccccc2)C1OC(=O)c1ccccc1)c1ccccc1.[Cl][Ir+2] (mixture of isomers) [Ir-6],2.36
2,Cc1ccc(C(C)C)cc1.F[P-](F)(F)(F)(F)F.O=C(OCC1OC(c2nnc(-c3ccccn3)o2)C(OC(=O)c2ccccc2)C(OC(=O)c2ccccc2)C1OC(=O)c1ccccc1)c1ccccc1.[Cl][Os+] (mixture of isomers) [Os-3],3.32
3,Cc1ccc(C(C)C)cc1.F[P-](F)(F)(F)(F)F.O=C(OCC1OC(c2nnc(-c3ccccn3)o2)C(OC(=O)c2ccccc2)C(OC(=O)c2ccccc2)C1OC(=O)c1ccccc1)c1ccccc1.[Cl][Os+] (mixture of isomers) [Os-4],2.87
4,Cc1ccc(C(C)C)cc1.F[P-](F)(F)(F)(F)F.O=C(OC1COC(c2nnc(-c3ccccn3)o2)C(OC(=O)c2ccccc2)C1OC(=O)c1ccccc1)c1ccccc1.[Cl][Os+] (mixture of isomers) [Os-5],2.36
5,Cc1ccc(C(C)C)cc1.F[P-](F)(F)(F)(F)F.O=C(OCC1OC(n2cc(-c3ccccn3)nn2)C(OC(=O)c2ccccc2)C(OC(=O)c2ccccc2)C1OC(=O)c1ccccc1)c1ccccc1.[Cl][Os+] (mixture of isomers) [Os-6],2.33
